# Measurements published in PubChem BioAssay AID1259407 (Chemical Carcinogenesis Research Information System (CCRIS), 2018).
# Activity calls are given as the source filed them. No rule for the calls is given here.
# Test system: CCRIS mutagenicity, Ames/micronucleus/aberration tests
# Assay: CCRIS mutagenicity studies
# [1] = Test System: AMES SALMONELLA TYPHIMURIUM, Strain/Indicator: TA100, Metabolic Activation: NONE, Method: STANDARD PLATE
structure (smiles),measurement,setting,value
CN1CSC(=S)N(C)C1,mutagenic call,"End Point: In vivo micronucleus, Test System: Micronucleated polychromatic erythrocytes, Species: Mouse, Strain/Sex: NMRI / Males and females, Route: Oral",inactive; negative
CC/C=C\C=C\CCCCCCOC(C)=O,mutagenic call,"Test System: AMES SALMONELLA TYPHIMURIUM, Strain/Indicator: TA98, Metabolic Activation: NONE, Method: STANDARD PLATE",inactive; negative
same,mutagenic call,"Test System: AMES SALMONELLA TYPHIMURIUM, Strain/Indicator: TA98, Metabolic Activation: RAT, LIVER, S-9, Method: STANDARD PLATE",inactive; negative
same,mutagenic call,[1],inactive; negative
same,mutagenic call,"Test System: AMES SALMONELLA TYPHIMURIUM, Strain/Indicator: TA100, Metabolic Activation: RAT, LIVER, S-9, Method: STANDARD PLATE",inactive; negative
same,mutagenic call,"Test System: AMES SALMONELLA TYPHIMURIUM, Strain/Indicator: TA102, Metabolic Activation: NONE, Method: STANDARD PLATE",inactive; negative
same,mutagenic call,"Test System: AMES SALMONELLA TYPHIMURIUM, Strain/Indicator: TA102, Metabolic Activation: RAT, LIVER, S-9, Method: STANDARD PLATE",inactive; negative
Cn1cnc([N+](=O)[O-])c1-c1ccccc1,mutagenic call,[1],inactive; negative
Cc1c(N)cccc1N,mutagenic call,"End Point: IN VITRO CHROMOSOMAL ABERRATIONS, Test System: CHINESE HAMSTER LUNG CELLS (CHL), Metabolic Activation: NONE",active; positive (structural changes)
same,mutagenic call,"End Point: IN VITRO CHROMOSOMAL ABERRATIONS, Test System: CHINESE HAMSTER LUNG CELLS (CHL), Metabolic Activation: RAT, LIVER, S-9, KC-400",active; positive (structural changes)
same,mutagenic call,"End Point: IN VITRO CHROMOSOMAL ABERRATIONS, Test System: CHINESE HAMSTER OVARY CELLS (CHO), Metabolic Activation: NONE",active; positive (structural changes)
same,mutagenic call,"End Point: IN VITRO CHROMOSOMAL ABERRATIONS, Test System: CHINESE HAMSTER OVARY CELLS (CHO), Metabolic Activation: RAT, LIVER, S-9, AROCLOR 1254",inactive; negative
same,mutagenic call,"End Point: IN VITRO CHROMOSOMAL ABERRATIONS, Test System: CHO CELLS, Metabolic Activation: RAT, LIVER, S-9, AROCLOR 1254",inactive; negative
same,mutagenic call,"Test System: AMES SALMONELLA TYPHIMURIUM, Strain/Indicator: TA97, Metabolic Activation: HAMSTER, LIVER, S-9, AROCLOR 1254 (10%), Method: PREINCUBATION",active; positive
same,mutagenic call,"Test System: AMES SALMONELLA TYPHIMURIUM, Strain/Indicator: TA97, Metabolic Activation: NONE, Method: PREINCUBATION",inactive; negative
same,mutagenic call,"Test System: AMES SALMONELLA TYPHIMURIUM, Strain/Indicator: TA97, Metabolic Activation: RAT, LIVER, S-9, AROCLOR 1254 (10%), Method: PREINCUBATION",inactive; negative
same,mutagenic call,"Test System: AMES SALMONELLA TYPHIMURIUM, Strain/Indicator: TA98, Metabolic Activation: HAMSTER, LIVER, S-9, AROCLOR 1254 (10%), Method: PREINCUBATION",active; positive
same,mutagenic call,"Test System: AMES SALMONELLA TYPHIMURIUM, Strain/Indicator: TA98, Metabolic Activation: NONE, Method: PREINCUBATION",inactive; negative
same,mutagenic call,"Test System: AMES SALMONELLA TYPHIMURIUM, Strain/Indicator: TA98, Metabolic Activation: RAT, LIVER, S-9, AROCLOR 1254 (10%), Method: PREINCUBATION",active; positive
same,mutagenic call,"Test System: AMES SALMONELLA TYPHIMURIUM, Strain/Indicator: TA100, Metabolic Activation: HAMSTER, LIVER, S-9, AROCLOR 1254 (10%), Method: PREINCUBATION",active; positive
same,mutagenic call,"Test System: AMES SALMONELLA TYPHIMURIUM, Strain/Indicator: TA100, Metabolic Activation: NONE, Method: PREINCUBATION",inactive; negative
same,mutagenic call,"Test System: AMES SALMONELLA TYPHIMURIUM, Strain/Indicator: TA100, Metabolic Activation: RAT, LIVER, S-9, AROCLOR 1254 (10%), Method: PREINCUBATION",active; positive
same,mutagenic call,"Test System: AMES SALMONELLA TYPHIMURIUM, Strain/Indicator: TA1535, Metabolic Activation: HAMSTER, LIVER, S-9, AROCLOR 1254 (10%), Method: PREINCUBATION",active; positive
same,mutagenic call,"Test System: AMES SALMONELLA TYPHIMURIUM, Strain/Indicator: TA1535, Metabolic Activation: NONE, Method: PREINCUBATION",inactive; negative
same,mutagenic call,"Test System: AMES SALMONELLA TYPHIMURIUM, Strain/Indicator: TA1535, Metabolic Activation: RAT, LIVER, S-9, AROCLOR 1254 (5, 10 OR 30%), Method: PREINCUBATION",inactive; negative
COC(=O)CCN(N=O)C(N)=O,mutagenic call,"Test System: E. COLI B, Strain/Indicator: H/R30R, Metabolic Activation: NONE",active; positive
same,mutagenic call,"Test System: E. COLI B, Strain/Indicator: HS30R, Metabolic Activation: NONE",active; positive
C=CC1=C(C)C(/C=c2/[nH]/c(=C\c3[nH]c(/C=C4\NC(=O)C(C)=C4C=C)c(C)c3CCC(=O)O)c(CCC(=O)O)c2C)=NC1=O,mutagenic call,"Test System: Ames Salmonella typhimurium, Strain/Indicator: TA98, Metabolic Activation: Liver, S-9, Method: Preincubation",inactive; negative
same,mutagenic call,"Test System: Ames Salmonella typhimurium, Strain/Indicator: TA100, Metabolic Activation: Liver, S-9, Method: Preincubation",inactive; negative
same,mutagenic call,"Test System: Ames Salmonella typhimurium, Strain/Indicator: TA100, Metabolic Activation: None, Method: Preincubation",inactive; negative
same,mutagenic call,"Test System: Ames Salmonella typhimurium, Strain/Indicator: TA102, Metabolic Activation: Liver, S-9, Method: Preincubation",inactive; negative
same,mutagenic call,"Test System: Ames Salmonella typhimurium, Strain/Indicator: TA102, Metabolic Activation: None, Method: Preincubation",inactive; negative
O=c1c2c(O)cc(O)cc2oc2c(O)ccc(O[C@@H]3O[C@H](CO)[C@@H](O)[C@H](O)[C@H]3O)c12,mutagenic call,"Test System: AMES SALMONELLA TYPHIMURIUM, Strain/Indicator: TA97, Metabolic Activation: RAT, LIVER, S-9, PHENOBARBITAL AND 5,6-BENZOFLAVONE, BETA-GLUCOSIDASE, Method: PREINCUBATION",active; positive
same,mutagenic call,"Test System: AMES SALMONELLA TYPHIMURIUM, Strain/Indicator: TA98, Metabolic Activation: RAT, LIVER, S-9, PHENOBARBITAL AND 5,6-BENZOFLAVONE, BETA-GLUCOSIDASE, Method: PREINCUBATION",inactive; negative
same,mutagenic call,"Test System: AMES SALMONELLA TYPHIMURIUM, Strain/Indicator: TA100, Metabolic Activation: RAT, LIVER, S-9, PHENOBARBITAL AND 5,6-BENZOFLAVONE, BETA-GLUCOSIDASE, Method: PREINCUBATION",active; positive
same,mutagenic call,"Test System: AMES SALMONELLA TYPHIMURIUM, Strain/Indicator: TA2637, Metabolic Activation: RAT, LIVER, S-9, PHENOBARBITAL AND 5,6-BENZOFLAVONE, BETA-GLUCOSIDASE, Method: PREINCUBATION",active; positive
